Data taken from patent US11814364B2, “Pyridine N-oxide derivatives useful as factor XIa inhibitors” (Janssen Pharmaceutica NV, priority 2021, dated 2023).

Target: human plasma kallikrein (Homo sapiens, UniProt P03952)
Assay: Kallikrein inhibition FLINT assay with quenched AMC peptide substrate Z-Gly-Pro-Arg-AMC (end point EP or kinetic KIN reads)
Assay type: biochemical
Settings: kinetic reads at 5 min intervals over 30 min; read-out: Kallikrein (KIN) IC50
Outline: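 Enzyme and compound were preincubated 30 min before adding 50 μM AMC substrate in pH 7.5 Tris/NaCl/CaCl2/BSA/CHAPS buffer. AMC release was read at 30 min endpoint or every 5 min.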

Sequence of human plasma kallikrein (P03952 391-638 limits assumed): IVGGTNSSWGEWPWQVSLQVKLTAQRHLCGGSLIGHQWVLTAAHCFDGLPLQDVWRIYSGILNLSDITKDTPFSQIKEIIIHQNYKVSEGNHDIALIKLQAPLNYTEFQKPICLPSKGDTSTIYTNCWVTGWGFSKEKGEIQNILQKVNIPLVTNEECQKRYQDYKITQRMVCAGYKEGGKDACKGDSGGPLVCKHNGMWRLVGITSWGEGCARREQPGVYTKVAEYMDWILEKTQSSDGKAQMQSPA
Sequence of human plasma kallikrein (P03952 20-390 partner limits assumed): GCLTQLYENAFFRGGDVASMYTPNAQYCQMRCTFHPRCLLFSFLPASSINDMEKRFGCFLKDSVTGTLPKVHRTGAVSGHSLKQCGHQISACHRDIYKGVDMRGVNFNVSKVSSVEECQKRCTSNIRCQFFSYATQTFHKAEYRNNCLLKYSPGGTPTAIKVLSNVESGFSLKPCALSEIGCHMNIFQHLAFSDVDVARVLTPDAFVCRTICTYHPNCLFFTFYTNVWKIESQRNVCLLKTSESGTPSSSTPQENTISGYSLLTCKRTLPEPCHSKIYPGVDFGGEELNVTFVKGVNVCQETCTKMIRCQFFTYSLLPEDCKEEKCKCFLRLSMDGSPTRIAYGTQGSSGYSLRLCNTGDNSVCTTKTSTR

SMILES	IC50 [nM]
[O-][n+]1cc(-c2c(-n3cnnn3)ccc(Cl)c2F)ccc1[C@@H](CCOC(F)F)n1cc(-c2cnnn2C(F)F)cn1 [Example P676]	11.8
N#Cc1cc(-c2cnn(C(Cn3cc(F)cn3)c3ccc(-c4c(-n5cnnn5)ccc(Cl)c4F)c[n+]3[O-])c2)ccn1 (single isomer, unassigned) [Example P454]	12.6
COC(C)(C)C[C@H](c1ccc(-c2c(-n3cnnn3)ccc(Cl)c2F)c[n+]1[O-])n1cc(-c2ccnn2C(F)F)cn1 [Example P646]	506
[O-][n+]1cc(-c2cc(Cl)ccc2-n2cnnn2)ccc1C(Cc1ccc(Cl)cc1)n1cc(-c2cc(Cl)ccc2-n2cnnn2)cn1 (stereo not drawn) [Example P152]	895
[O-][n+]1cc(-c2c(-n3cnnn3)ccc(Cl)c2F)ccc1C(Cn1cc2c(n1)COCC2)n1cc(-c2ccnc(C(F)(F)F)c2)cn1 (stereo not drawn) [Example P463]	6.4
[O-][n+]1cc(-c2c(-n3cnnn3)ccc(Cl)c2F)ccc1C(CC1CC1)n1cc(-c2ncns2)cn1 (stereo not drawn) [Example P525]	812
Cn1nc(C(F)(F)F)cc1-c1cnn(C(CC2CC2)c2ccc(-c3c(-n4cnnn4)ccc(Cl)c3F)c[n+]2[O-])c1 (stereo not drawn) [Example P548]	514
[O-][n+]1cc(-c2c(-n3cnnn3)ccc(Cl)c2F)ccc1[C@@H](Cc1ccc(C(F)(F)F)nc1)n1cc(-c2ncnn2C(F)F)cn1 [Example P783]	18.9
COCCC(c1ccc(-c2c(-n3cnnn3)ccc(Cl)c2F)c[n+]1[O-])n1cc(-n2ccnc2)cn1 (single isomer, unassigned) [Example P527]	176
[O-][n+]1ccc(-c2cnn(C(Cn3cccn3)c3ccc(-c4c(-n5cnnn5)ccc(Cl)c4F)c[n+]3[O-])c2)cc1C(F)F (single isomer, unassigned) [Example P339]	670
CS(=O)(=O)Nc1ccc(-c2cnn(C(Cc3ccccc3)c3ccc(-c4c(-n5cnnn5)ccc(Cl)c4F)c[n+]3[O-])c2)cc1 (stereo not drawn) [Example P76]	4.2
O=C(O)C1CCN(C(=O)c2ccn(CC(c3ccc(-c4c(-n5cnnn5)ccc(Cl)c4F)c[n+]3[O-])n3cc(-c4ccncc4)cn3)n2)CC1 (stereo not drawn) [Example P444]	1.8
CN(CC(c1ccc(-c2c(-n3cnnn3)ccc(Cl)c2F)c[n+]1[O-])n1cc(-c2ccnc(C(F)(F)F)c2)cn1)C(=O)c1ccccc1 (single isomer, unassigned) [Example P409]	32.3
CC1CC1CC(c1ccc(-c2c(-n3cnnn3)ccc(Cl)c2F)c[n+]1[O-])n1cc(-c2ncnn2C(F)F)cn1 (stereo not drawn) [Example P765]	> 100
[O-][n+]1ccc(-c2cnn(C(Cc3ccc(F)cc3)c3ccc(-c4c(OC(F)F)ccc(Cl)c4F)c[n+]3[O-])c2)cc1 (single isomer, unassigned) [Example Q17]	7820
[O-][n+]1cc(-c2c(-n3cc(Cl)nn3)ccc(Cl)c2F)ccc1[C@@H](CCOC(F)F)n1cc(-c2ncnn2C(F)F)cn1 [Example P683]	29.5
[O-][n+]1cc(-c2c(-n3cc(Br)nn3)ccc(Cl)c2F)ccc1[C@@H](CCOC(F)F)n1cc(-c2ncnn2C(F)F)cn1 [Example P788]	17.4
NC(=O)c1ccc(-c2cnn(C(CCOC(F)F)c3ccc(-c4c(-n5cc(Cl)nn5)ccc(Cl)c4F)c[n+]3[O-])c2)cc1F (single isomer, unassigned) [Example P875]	2.7
O=C(C1CC1CC(c1ccc(-c2c(-n3cnnn3)ccc(Cl)c2F)c[n+]1[O-])n1cc(-c2ccncc2)cn1)N1CCC(c2ccccc2)C1 (stereo not drawn) [Example P253]	159
[O-][n+]1cc(-c2cc(Cl)ccc2-n2cnnn2)ccc1C(Cc1ccc(Cl)cc1)n1cc(-c2ccnc(C(F)(F)F)c2)cn1 (stereo not drawn) [Example P250]	45.9
[O-][n+]1cc(-c2c(-n3cnnn3)ccc(Cl)c2F)ccc1C(Cn1cc(C(F)(F)F)cn1)n1cc(-c2ccnc(F)c2)cn1 (stereo not drawn) [Example P331]	28.5
Cn1ncnc1-c1cnn([C@H](CCOC(F)F)c2ccc(-c3c(-n4cc(Cl)nn4)ccc(Cl)c3F)c[n+]2[O-])c1 [Example P722]	39.6
Cn1cncc1-c1cnn(C(CC2CC2)c2ccc(-c3c(-n4cnnn4)ccc(Cl)c3F)c[n+]2[O-])c1 (stereo not drawn) [Example P457]	554
[O-][n+]1cc(-c2c(-n3cnnn3)ccc(Cl)c2F)ccc1C(Cc1ccc(C(F)(F)F)nc1)n1cc(-c2ccnn2C(F)F)cn1 (stereo not drawn) [Example P753]	54.3
COCc1ccn(CC(c2ccc(-c3c(-n4cnnn4)ccc(Cl)c3F)c[n+]2[O-])n2cc(-c3ccnc(C(F)(F)F)c3)cn2)n1 (single isomer, unassigned) [Example P441]	3.2
O=C1CCCN1CC(c1ccc(-c2c(-n3cnnn3)ccc(Cl)c2F)c[n+]1[O-])n1cc(-c2ccnc(C(F)(F)F)c2)cn1 (single isomer, unassigned) [Example P364]	13.5
NC(=O)c1ccc(-c2cnn(C(CCOC(F)F)c3ccc(-c4c(-n5cc(Cl)nn5)ccc(Cl)c4F)c[n+]3[O-])c2)cc1 (single isomer, unassigned) [Example P895]	702

SMILES	IC50 [nM]
COc1cc(C(CC2CC2)n2cc(-c3ncnn3C)cn2)[n+]([O-])cc1-c1cc(Cl)ccc1-n1cc(C(F)(F)F)nn1 (single isomer, unassigned) [Example P918]	29.5
[O-][n+]1cc(-c2c(-n3cnnn3)ccc(Cl)c2F)ccc1[C@@H](CCOC(F)F)n1cc(-c2cnn(C(F)F)n2)cn1 [Example P674]	54.9
O=C1CCCN1CC(c1ccc(-c2c(-n3cnnn3)ccc(Cl)c2F)c[n+]1[O-])n1cc(-c2ccnc(F)c2)cn1 (single isomer, unassigned) [Example P382]	7.3
Cc1nccc(-c2cnn(C(CC3CC3)c3ccc(-c4c(-n5cnnn5)ccc(Cl)c4F)c[n+]3[O-])c2)n1 (stereo not drawn) [Example P368]	621
CC(C)(C)c1cc(-c2cnn(C(Cn3cc(F)cn3)c3ccc(-c4c(-n5cnnn5)ccc(Cl)c4F)c[n+]3[O-])c2)ccn1 (stereo not drawn) [Example P395]	25.5
Cn1nnc(F)c1-c1cnn(C(CC2CC2)c2ccc(-c3c(-n4cnnn4)ccc(Cl)c3F)c[n+]2[O-])c1 (stereo not drawn) [Example P743]	> 100
CCC(c1ccc(-c2c(-n3cnnn3)ccc(Cl)c2F)c[n+]1[O-])n1cc(-c2cc[n+]([O-])cc2)cn1 (single isomer, unassigned) [Example P234]	298
[O-][n+]1cc(-c2c(-n3cnnn3)ccc(Cl)c2F)ccc1C(CC1CCCO1)n1cc(-c2ccncc2)cn1 (stereo not drawn) [Example P186]	320
O=C(Cc1cnn(CC(c2ccc(-c3c(-n4cnnn4)ccc(Cl)c3F)c[n+]2[O-])n2cc(-c3ccnc(C(F)(F)F)c3)cn2)c1)N1CCCCC1 (stereo not drawn) [Example P473]	104
COC(=O)Nc1ccc(-c2cnn(C(CCO)c3ccc(-c4c(-n5cnnn5)ccc(Cl)c4F)c[n+]3[O-])c2)cc1 (single isomer, unassigned) [Example P218]	87.2
CCOc1cc(C(CC2CC2)n2cc(-c3ncnn3C)cn2)[n+]([O-])cc1-c1cc(Cl)ccc1-n1cc(C(F)(F)F)nn1 (single isomer, unassigned) [Example P945]	324
O=C(C1CC1CC(c1ccc(-c2c(-n3cnnn3)ccc(Cl)c2F)c[n+]1[O-])n1cc(-c2ccncc2)cn1)N1CCC(C2CC2)C1 (stereo not drawn) [Example P254]	376
O=C(C1CC1CC(c1ccc(-c2c(-n3cnnn3)ccc(Cl)c2F)c[n+]1[O-])n1cc(-c2ccncc2)cn1)N1CCCC1 (stereo not drawn) [Example P266]	197
Cc1cc(-c2cnn(C(Cn3cccn3)c3ccc(-c4c(-n5cnnn5)ccc(Cl)c4F)c[n+]3[O-])c2)ccn1 (stereo not drawn) [Example P310]	9
[O-][n+]1cc(-c2c(-n3cnnn3)ccc(Cl)c2F)ccc1[C@H](Cn1ccc(OC(F)F)n1)n1cc(-c2ccnc(C(F)(F)F)c2)cn1 [Example P534]	93.1
NC(=O)c1scc(-c2cnn(C(CC3CC3)c3ccc(-c4c(-n5cnnn5)ccc(Cl)c4F)c[n+]3[O-])c2)c1F (single isomer, unassigned) [Example P953]	13.4
[2H]C([2H])([2H])OCCC(c1ccc(-c2c(-n3cnnn3)ccc(Cl)c2F)c[n+]1[O-])n1cc(-c2ccnc(C(F)(F)F)c2)cn1 (single isomer, unassigned) [Example P386]	39.8
NC(=O)c1ccc(-c2cnn(C(CC(=O)N3CCCC3)c3ccc(-c4c(-n5cc(C(F)(F)F)nn5)ccc(Cl)c4F)c[n+]3[O-])c2)cc1F (stereo not drawn) [Example P902]	87.1
O=C(Nc1ccnc(F)c1-c1cnn(C(Cc2ccc(F)cc2)c2ccc(-c3c(-c4cnco4)ccc(Cl)c3F)c[n+]2[O-])c1)C1CC1 (stereo not drawn) [Example P148]	350
NC(=O)c1ccc(-c2cnn(C(Cc3ccn(C(F)F)n3)c3ccc(-c4c(-n5cc(Cl)nn5)ccc(Cl)c4F)c[n+]3[O-])c2)cc1F (single isomer, unassigned) [Example P893]	20.5
COC(=O)Nc1ccc(-c2cnn(C(Cc3cccc(OC)c3)c3ccc(-c4c(-n5cnnn5)ccc(Cl)c4F)c[n+]3[O-])c2)cc1 (single isomer, unassigned) [Example P207]	2.9
O=C(O)c1ccc(-c2cnn(C(CCOC(F)F)c3ccc(-c4c(-n5cc(C(F)(F)F)nn5)ccc(Cl)c4F)c[n+]3[O-])c2)cc1 (stereo not drawn) [Example P838]	30.7
[O-][n+]1cc(-c2c(-n3cnnn3)ccc(Cl)c2F)ccc1C(Cn1cccn1)n1cc(-c2ccnc(F)c2)cn1 (stereo not drawn) [Example P309]	9.2
Cn1cc(C[C@H](c2ccc(-c3c(-n4cnnn4)ccc(Cl)c3F)c[n+]2[O-])n2cc(-c3ccnc(C(F)(F)F)c3)cn2)nn1 [Example P736]	8.4
[O-][n+]1cc(-c2c(-n3cnnn3)ccc(Cl)c2F)ccc1C(Cn1cc(F)c(COC(F)F)n1)n1cc(-c2ccnc(C(F)(F)F)c2)cn1 (single isomer, unassigned) [Example P571]	134
COC(=O)Nc1ccc(-c2cnn(C(Cc3cccc(OC)c3)c3ccc(-c4c(-n5cnnn5)ccc(Cl)c4F)c[n+]3[O-])c2)cc1 (single isomer, unassigned) [Example P206]	137
Cn1cc(CC(c2ccc(-c3c(C(F)F)ccc(Cl)c3F)c[n+]2[O-])n2cc(-c3cnnn3C)cn2)cn1 (single isomer, unassigned) [Example Q42]	44.3
